Ends that are not written are not given here. Peptide text beside a SMILES is read from it.

The values that follow come from EP4371586B1, “MULTIFUNCTIONAL CHITOSAN COMPOSITES FOR BONE DEFECT FILLING AND BONE TISSUE REGENERATION AND METHODS FOR OBTAINING THEM” (Siec Badawcza Lukasiewicz - Instytut Ceramiki i Materialow …, priority 2022, dated 2024).

The subject of experiment [1] is Staphylococcus aureus PCM 2602. The experiment can be described thus: MIC by microdilution method (CLSI M07-A9). In kind it is cell-based. The settings on record: 24 hours at 37 °C, BHI medium, range 3.125 - 250 µg/ml. As for the experimental part: The antimicrobial properties of the peptide were tested based on Clinical and Laboratory Standards Institute (CLSI) guidelines according to CLSI M07-A9 2012 using the microdilution method. Two bacterial pathogens were used for the study: Gram-positive Staphylococcus aureus PCM 2602 and Gram-negative Pseudomonas aeruginosa PCM 2563.
The bacterial inoculum for the experiment was prepared by direct inoculation of Brain-Heart Infusion medium (BHI) with bacteria from a 24-hour culture on solid medium. The density of the suspension was 0.5 on the McFarland scale. The peptide concentration analysed : 3.125 - 250 µg/ml . Serial dilutions were performed in a 96-well, flat-bottomed, hydrophobic cell culture plate using BHI liquid medium. Then the previously prepared bacterial suspension was added. The final number of pathogens in each well was approximately 5 × 10^5 CFU/ml (Colony Forming Units per millilitre). Microplates were incubated for 24 hours at 37 °C under aerobic conditions. The minimum inhibitory concentration (MIC) for a peptide was defined as the lowest concentration of peptide in a well where no bacterial growth was observed. All experiments were performed in triplicate. Table 3. Minimum microbial growth inhibitory concentration values for peptide ug46 against the bacteria S. aureus PCM 2602 and P. aeruginosa PCM 2563.
Background: In broth dilution the organism is exposed to a series of concentrations in liquid medium.

The test system of experiment [2] is hFOB human osteoblast cell line. The experiment can be described thus: WST-1 proliferation assay of peptides, indirect method per ISO 10993-5. Format: cell-based. The settings on record: % of proliferation of control cells. As for the experimental part: Cytotoxicity was tested by an indirect method based on the guidelines in ISO 10993- 5 on the hFOB human osteoblast cell line (ATCC) using the LDH assay (Roche). The results presented were averaged from two technical repeats and presented as % relative to control cells treated with 1% Triton X- 100 solution. proliferation was tested by an indirect method based on the guidelines in ISO 10993- 5 on the hFOB human osteoblast cell line (ATCC) using the WST-1 assay (Abcam). The results shown were averaged from two technical repeats and presented as % in relation to control cells cultured without added peptides.
Proliferation and cytotoxicity data were analysed and visualised using GraphPad Prism 8 software (GraphPad Software, USA). Statistical analysis was performed using the Kruskal- Wallis test (p = 0.05). In the next step, the Benjamini, Krieger and Yekutielli multiple comparisons test was performed to control the false discovery rate (p = 0.05). Comparisons were made between results obtained for individual peptide concentrations.
In general terms: Tetrazolium dyes change colour on reduction, which living cells bring about.

In the case of `CC[C@H](C)[C@H](NC(=O)CNC(=O)[C@H](C)NC(=O)[C@H](CCC(N)=O)NC(C)=O)C(=O)N[C@H](C(=O)N[C@H](C(=O)N1CCC[C@H]1C(=O)N[C@@H](CC(C)C)C(=O)NCC(=O)N[C@@H](CC(C)C)C(=O)NCC(=O)N[C@@H](CC(C)C)C(=O)N[C@@H](CC(C)C)C(=O)N[C@@H](CCCCN)C(=O)N[C@@H](CCCNC(=N)N)C(=O)N[C@H](C(=O)N[C@@H](CCCCN)C(=O)N[C@H](C(=O)N[C@@H](CC(C)C)C(=O)N[C@@H](CC(C)C)C(N)=O)[C@@H](C)O)[C@@H](C)CC)C(C)C)C(C)C` [ug46] (Ac-QAGIVVPLGLGLLKRIKTLL-NH2), in experiment [1], the “Minimum inhibitory concentration of microorganisms (MIC) S. aureus PCM 2602” value stood at 100 µg/mL.

Turning to “CPLGLYGFGG [ug4, engineered pro-regenerative peptide]”, the proliferation in experiment [2] (any ug1/ug4 peptide concentration (none lower)) is given as no less than 70%; in experiment [2] (most concentrations of ug1/ug4 peptide), “above 100%”.
